Here are results for 19 compounds from patent US12421211B2, “Heterocyclic compounds” (Hoffmann-La Roche Inc., priority 2021, dated 2025).

The experiment has as its system Acinetobacter baumannii ATCC17961. Briefly: Antimicrobial susceptibility testing: 90% growth inhibitory concentration (IC90) determination. The experiment is classed as cell-based. The conditions noted are these: Acinetobacter baumannii, ATCC17961, 16 h, 90% growth inhibitory concentration, Acinetobacter baumannii ATCC17961, Iso-Sensitest broth, OD 600 nm over 16 h; read-out: ATCC 17961 IC90. In a few lines: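 A. baumannii ATCC17961 at ~5×10^5 CFU/ml in Iso-Sensitest broth exposed to 10-point twofold dilutions (e.g. 50–0.097 μM final), 35±2° C. OD600 read every 20 minutes over 16h; IC50 and IC90 derived from inhibition during logarithmic growth.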

Counter-ions that a name gives are not always drawn.

`COCCCn1cc(-c2ccc(-c3cnc(C(=O)Nc4ccc(C(=O)N5CCN(C(=O)[C@@H]6C[C@@H](O)C[N+]6(C)C)CC5)c(Cl)c4)n3C)c(F)c2F)c(C)n1` [Example D11, N-[3-chloro-4-[4-[(2S,4R)-4-hydroxy-1,1-dimethyl-pyrrolidin-1-ium-2-carbonyl]piperazine-1-carbonyl]phenyl]-5-[2,3-difluoro-4-[1-(3-methoxypropyl)-3-methyl-pyrazol-4-yl]phenyl]-1-methyl-imidazole-2-carboxamide; formate]: the IC90 amounted to 270 nM. With `COCCCn1ncc(-c2ccc(-c3cnc(C(=O)Nc4ccc(C(=O)N5CCN(C(=O)[C@@H]6C[C@@H](O)C[N+]6(C)C)CC5)c(Cl)c4)n3C)c(F)c2F)c1C` [Example D12, N-[3-chloro-4-[4-[(2S,4R)-4-hydroxy-1,1-dimethyl-pyrrolidin-1-ium-2-carbonyl]piperazine-1-carbonyl]phenyl]-5-[2,3-difluoro-4-[1-(3-methoxypropyl)-5-methyl-pyrazol-4-yl]phenyl]-1-methyl-imidazole-2-carboxamide; formate] the figure was 200 nM; with `COCCCn1cc(-c2ccc(-c3cnc(C(=O)Nc4ccc(C(=O)N5CCN(C(=O)[C@@H]6COCC[N+]6(C)C)CC5)c(Cl)c4)n3C)c(F)c2F)c(C)n1` [Example D13, N-[3-chloro-4-[4-[(3S)-4,4-dimethylmorpholin-4-ium-3-carbonyl]piperazine-1-carbonyl]phenyl]-5-[2,3-difluoro-4-[1-(3-methoxypropyl)-3-methyl-pyrazol-4-yl]phenyl]-1-methyl-imidazole-2-carboxamide; formate], 340 nM.

In the case of `COCCn1ncc(-c2ccc(-c3cnc(C(=O)Nc4ccc(C(=O)N5CCC(CN6CC[N+](C)(C)CC6=O)CC5)c(Cl)c4)n3C)c(F)c2F)c1C` [Example D14, N-[3-chloro-4-[4-[(4,4-dimethyl-2-oxo-piperazin-4-ium-1-yl)methyl]piperidine-1-carbonyl]phenyl]-5-[2,3-difluoro-4-[1-(2-methoxyethyl)-5-methyl-pyrazol-4-yl]phenyl]-1-methyl-imidazole-2-carboxamide; 2,2,2-trifluoroacetate], the IC90 turned out to be 110 nM. With `Cc1n[nH]cc1-c1ccc(-c2cnc(C(=O)Nc3ccc(C(=O)N4CCN(C(=O)C[N+]5(C)CCCC5)CC4)c(Cl)c3)n2C)c(F)c1F` [Example D15, N-[3-chloro-4-[4-[2-(1-methylpyrrolidin-1-ium-1-yl)acetyl]piperazine-1-carbonyl]phenyl]-5-[2,3-difluoro-4-(3-methyl-1H-pyrazol-4-yl)phenyl]-1-methyl-imidazole-2-carboxamide; formate] the figure was 100 nM. With `Cc1n[nH]cc1-c1ccc(-c2cnc(C(=O)Nc3ccc(C(=O)N4CCN(C(=O)C5CC[N+](C)(C)CC5)CC4)c(Cl)c3)n2C)c(F)c1F` [Example D16, N-[3-chloro-4-[4-(1,1-dimethylpiperidin-1-ium-4-carbonyl)piperazine-1-carbonyl]phenyl]-5-[2,3-difluoro-4-(3-methyl-1H-pyrazol-4-yl)phenyl]-1-methyl-imidazole-2-carboxamide; formate], the IC90 is 150 nM. Then `COCCn1cc(-c2ccc(-c3cnc(C(=O)Nc4ccc(C(=O)N5CCN(C(=O)CC6(O)CC[N+](C)(C)CC6)CC5)c(Cl)c4)n3C)c(F)c2F)c(C)n1` [Example D17, N-[3-chloro-4-[4-[2-(4-hydroxy-1,1-dimethyl-piperidin-1-ium-4-yl)acetyl]piperazine-1-carbonyl]phenyl]-5-[2,3-difluoro-4-[1-(2-methoxyethyl)-3-methyl-pyrazol-4-yl]phenyl]-1-methyl-imidazole-2-carboxamide; formate], with 260 nM; and `COCCn1ncc(-c2ccc(-c3cnc(C(=O)Nc4ccc(C(=O)N5CCN(C(=O)C6(N)CC[N+](C)(C)CC6)CC5)c(Cl)c4)n3C)c(F)c2F)c1C` [Example D20, N-[4-[4-(4-amino-1,1-dimethyl-piperidin-1-ium-4-carbonyl)piperazine-1-carbonyl]-3-chloro-phenyl]-5-[2,3-difluoro-4-[1-(2-methoxyethyl)-5-methyl-pyrazol-4-yl]phenyl]-1-methyl-imidazole-2-carboxamide; formate], with 64 nM; and `Cc1n[nH]cc1-c1ccc(-c2cnc(C(=O)Nc3ccc(C(=O)N4CCC(CN5CC[N+](C)(C)CC5=O)CC4)c(Cl)c3)n2C)c(F)c1F` [Example D21, N-[3-chloro-4-[4-[(4,4-dimethyl-2-oxo-piperazin-4-ium-1-yl)methyl]piperidine-1-carbonyl]phenyl]-5-[2,3-difluoro-4-(3-methyl-1H-pyrazol-4-yl)phenyl]-1-methyl-imidazole-2-carboxamide; formate], with 200 nM.

Turning to `COCCn1cc(-c2ccc(-c3cnc(C(=O)Nc4ccc(C(=O)N5CCC(NC(=O)[C@@H]6C[C@@H](O)CN6)CC5)c(Cl)c4)n3C)c(F)c2F)c(C)n1` [Example D23, N-[3-chloro-4-[4-[[(2S,4R)-4-hydroxypyrrolidine-2-carbonyl]amino]piperidine-1-carbonyl]phenyl]-5-[2,3-difluoro-4-[1-(2-methoxyethyl)-3-methyl-pyrazol-4-yl]phenyl]-1-methyl-imidazole-2-carboxamide; formic acid], the concentration for an effect of 90% (IC90) is 680 nM. On to `COCCn1ncc(-c2ccc(-c3cnc(C(=O)Nc4ccc(C(=O)N5CCN(C(=O)C6(O)CCNCC6)CC5)c(Cl)c4)n3C)c(F)c2F)c1C` [Example D24, N-[3-chloro-4-[4-(4-hydroxypiperidine-4-carbonyl)piperazine-1-carbonyl]phenyl]-5-[2,3-difluoro-4-[1-(2-methoxyethyl)-5-methyl-pyrazol-4-yl]phenyl]-1-methyl-imidazole-2-carboxamide; formic acid], for which the IC90 came to 73 nM. In the case of `COCCn1ncc(-c2ccc(-c3cnc(C(=O)Nc4ccc(C(=O)N5CCN(C(=O)C6CCNCC6O)CC5)c(Cl)c4)n3C)c(F)c2F)c1C` (stereo not shown) [Example D25, N-[3-chloro-4-[4-(3-hydroxypiperidine-4-carbonyl)piperazine-1-carbonyl]phenyl]-5-[2,3-difluoro-4-[1-(2-methoxyethyl)-5-methyl-pyrazol-4-yl]phenyl]-1-methyl-imidazole-2-carboxamide; formic acid], the concentration for an effect of 90% (IC90) came out at 51 nM. As to `COCCn1ncc(-c2ccc(-c3cnc(C(=O)Nc4ccc(C(=O)N5CCN(C(=O)[C@@H]6CCC(=O)N6)CC5)c(Cl)c4)n3C)c(F)c2F)c1C` [Example D26, N-[3-chloro-4-[4-[(2S)-5-oxopyrrolidine-2-carbonyl]piperazine-1-carbonyl]phenyl]-5-[2,3-difluoro-4-[1-(2-methoxyethyl)-5-methyl-pyrazol-4-yl]phenyl]-1-methyl-imidazole-2-carboxamide; 2,2,2-trifluoroacetic acid], the IC90 turned out to be 190 nM. Then `COCCn1ncc(-c2ccc(-c3cnc(C(=O)Nc4ccc(C(=O)N5CCN(C(=O)C6CCNC(=O)C6)CC5)c(Cl)c4)n3C)c(F)c2F)c1C` (stereo not shown) [Example D27, N-[3-chloro-4-[4-(2-oxopiperidine-4-carbonyl)piperazine-1-carbonyl]phenyl]-5-[2,3-difluoro-4-[1-(2-methoxyethyl)-5-methyl-pyrazol-4-yl]phenyl]-1-methyl-imidazole-2-carboxamide; 2,2,2-trifluoroacetic acid], with 230 nM. Take `COCCn1ncc(-c2ccc(-c3cnc(C(=O)Nc4ccc(C(=O)N5CCN(C(=O)CN6CCCC6)CC5)c(Cl)c4)n3C)c(F)c2F)c1C` [Example D28, N-[3-chloro-4-[4-(2-pyrrolidin-1-ylacetyl)piperazine-1-carbonyl]phenyl]-5-[2,3-difluoro-4-[1-(2-methoxyethyl)-5-methyl-pyrazol-4-yl]phenyl]-1-methyl-imidazole-2-carboxamide; 2,2,2-trifluoroacetic acid]: the IC90 was 30 nM. With `COCCn1ncc(-c2ccc(-c3cnc(C(=O)Nc4ccc(C(=O)N5CCN(C(=O)C67CC(N)(C6)C7)CC5)c(Cl)c4)n3C)c(F)c2F)c1C` [Example D30, N-[4-[4-(3-aminobicyclo[1.1.1]pentane-1-carbonyl)piperazine-1-carbonyl]-3-chloro-phenyl]-5-[2,3-difluoro-4-[1-(2-methoxyethyl)-5-methyl-pyrazol-4-yl]phenyl]-1-methyl-imidazole-2-carboxamide; 2,2,2-trifluoroacetic acid] the figure was 240 nM; with `COCCn1cc(-c2ccc(-c3cnc(C(=O)Nc4ccc(C(=O)N5CCN(C(=O)[C@@H]6C[C@@H](O)CN6)CC5)c(Cl)c4)n3C)c(F)c2F)c(C)n1` [Example D31, N-[3-chloro-4-[4-[(2S,4R)-4-hydroxypyrrolidine-2-carbonyl]piperazine-1-carbonyl]phenyl]-5-[2,3-difluoro-4-[1-(2-methoxyethyl)-3-methyl-pyrazol-4-yl]phenyl]-1-methyl-imidazole-2-carboxamide; formic acid], 220 nM; with `COCCn1ncc(-c2ccc(-c3cnc(C(=O)Nc4ccc(C(=O)N5CCN(C(=O)CN(C)C)CC5)c(Cl)c4)n3C)c(F)c2F)c1C` [Example D32, N-[3-chloro-4-[4-[2-(dimethylamino)acetyl]piperazine-1-carbonyl]phenyl]-5-[2,3-difluoro-4-[1-(2-methoxyethyl)-5-methyl-pyrazol-4-yl]phenyl]-1-methyl-imidazole-2-carboxamide; 2,2,2-trifluoroacetic acid], 52 nM.

Turning to `COCCn1ncc(-c2ccc(-c3cnc(C(=O)Nc4ccc(C(=O)NCC5CCN(C(=O)CN(C)C)CC5)c(Cl)c4)n3C)c(F)c2F)c1C` [Example D33, N-[3-chloro-4-[[1-[2-(dimethylamino)acetyl]-4-piperidyl]methylcarbamoyl]phenyl]-5-[2,3-difluoro-4-[1-(2-methoxyethyl)-5-methyl-pyrazol-4-yl]phenyl]-1-methyl-imidazole-2-carboxamide; 2,2,2-trifluoroacetic acid], the 90% effect concentration (IC90) amounted to 210 nM.
